Reference: US12559513B2, “Aromatic glycoside and method for producing the glycoside” (CAROTENOID-PRODUCTION TECHNOLOGY CORPORATION (CaroProTech), priority 2022, dated 2026)
pIC50: −log10 of the molar value.

Key:
[1] = system: rat brain homogenate; test: Peroxidation-inhibiting test of rat brain lipids (rat brain homogenate, TBA method); format: biochemical; settings: for pIC50: 1 hour at 37° C., malondialdehyde by A532, read-out: IC50 (50% inhibition concentration of rat brain lipid-peroxidation)
Procedure: The lipid peroxidation-inhibiting assay with rat brain homogenate is an experimental system for evaluating damages of biological system caused by the generation of ROS (Reactive Oxygen Species). It is because the rat brain is an organ that is easily oxidized by ROS. Using this system, we evaluated antioxidative activity of compounds 1-5.
Using rat brain homogenate, we examined lipid peroxidation-inhibiting activities of the test compounds. It was performed by incubating rat brain homogenate to proceed with lipid peroxidation reactions, with each compound and with no compound (as the control), by measuring the amounts of consequently generated malondialdehyde by absorbance at 532 nm in the TBA method, and by comparing the amounts of the malondialdehyde products between them.
We preincubated IWAKI disposable test tube ([…]×100 mm) that contained 0.6 mL of 100 mM phosphate buffer (pH 7.4), 0.05 mL of each test sample-including solution, 0.1 mL of 1 mM ascorbic acid, and 0.05 mL of distilled water at 37° C. for 5 min. And 0.2 mL of 2.5% (w/v) rat brain homogenate was added to the test tube, and incubated for 1 hour at 37° C. with shaking (150 rpm). Then, 1 mL of 0.2 N HCl solution including 20% (W/V) trichloroacetic acid and 0.5% (W/V) 2-thiobarbituric acid was added to the above test tube to stop the reaction. Next, this test tube containing each reaction solution was boiled for 30 min at 100° C. to produce color. After chilled on ice, each solution from the test tube was centrifuged with 3,000 rpm for 10 min, and the absorbance of each supernatant was measured at 532 nm (A532).
The lipid peroxidation-inhibiting ratio (%) of each extracted solution (containing each flavonoid glycoside as a test compound (T)) was calculated using the following Formula 1. (1−[T−B]/[C−B])′100. Formula 1
T (test), C (control), and B (blank) are A532 of a test compound with the rat brain homogenate, the control (no compound (instead ethanol) with the homogenate), and the blank control (no compound (instead ethanol) without the homogenate (instead phosphate buffer)), respectively. The lipid peroxidation-inhibiting activity was determined as the IC50 value, representing the concentration at which 50% inhibition was observed.
(Peroxidation-Inhibiting Test of Rat Brain Lipids)

[2] = system: mouse preadipocyte 3T3-L1; test: Differentiation-inducing test of mouse preadipocyte 3T3-L1 (Oil Red O staining); format: cell-based; settings: 3T3-L1 cells, differentiation cocktail with insulin for 6 days
Excerpt: Mouse preadipocyte 3T3-L1 is used for screening of activities for lipid metabolism improvement and anti-diabetes, since 3T3-L1 is induced to the differentiation of small adipocyte under proper conditions. This differentiated fat cell produces lipid bodies that can be stained with Oil Red O. PPAR (Peroxisome Proliferator-Activated Receptor) belongs to nuclear receptor superfamily. PPARγ is importantly related to differentiation of fat cells, e.g., activated PPARγ promotes differentiation from preadipocyte to adipocyte. Furthermore, PPARγ promotes apoptosis of large fat cells. Compounds activating PPARγ (PPARγ agonists) improve insulin resistance by inducing apoptosis of large fat cells that are willing to produce TNF-α and free fatty acids, reluctant to import sugars, and induce insulin resistance. PPARγ agonists further reduce blood glucose levels, and exert anti-diabetes activity by inducing differentiation to small fat cells that are reluctant to produce TNF-α and free fatty acids, willing to import glucose in blood, and improve glucose metabolism. Currently, PPARγ agonists such as rosiglitazone (thiazolidine) are used clinically to treat patients with type-2 diabetes mellitus.
In the present EXAMPLE, we carried out to examine whether aromatic compound glycosides can promote differentiation to small fat cells, using mouse 3T3-L1 preadipocyte.
Thus, we examined the PPARγ agonistic activities of compounds 3, 4, 20, and 21, which were selected as the representatives.
The 3T3-L1 cell line was purchased from Japanese Collection of Research Bioresources Cell Bank (JCRB, Osaka, Japan). The 3T3-L1 cells were cultured in DMEM with 10% fetal calf serum (FCS, Sigma Aldrich, St Lous, USA) and antibiotics ([…]). The cells were seeded in collagen coated 12-well plates at 10,000 cells/well (1 mL) and grown to confluence for 2 days. The differentiation procedure was initiated 2 days after cells reached confluence by changing the medium to the differentiation cocktail ([…] in DMEM containing 10% FBS and antibiotics) with or without various concentrations of test compounds (positive control, thiazolidine; four aromatic compound glycosite) dissolved in DMSO (10^3-10^4 times dilutions of the stocks were used). Thereafter, the cells were grown in the differentiation cocktail for 6 days.
Then, Oil Red O (ORO) staining was performed to evaluate the ratio of the differentiated 3T3-L1 cells. […] ORO was then extracted from fixed cells with 100% isopropanol (1 mL), and OD500 values of isopropanol solution, which reflect the ORO amount imported into the cells (=the lipid (body) amount of the differentiated cells), were measured by 96-well microplate reader. […]

| Structure (SMILES) | pIC50 [1] | activity for differentiation induction to small fat cells (adipose) [2] | lipid peroxidation-inhibiting activity (in words) [1] |
| --- | --- | --- | --- |
| CC1OC(Oc2cc(O)c3c(=O)c(O[C@@H]4OC(CO)[C@@H](O)C(O)C4O[C@@H]4OC(CO)[C@@H](O)C(O)C4O)c(-c4ccc(O)c(OC(=O)/C=C/c5ccc(O)c(O)c5)c4)oc3c2)C(O)C(O)C1O (stereo partly shown) [Compound 1] | 5.77 | – | – |
| CC1OC(Oc2cc(O)c3c(=O)c(O[C@@H]4OC(CO)[C@@H](O)C(O)C4O[C@@H]4OC(CO)[C@@H](O)C(O)C4O)c(-c4ccc(OC(=O)/C=C/c5ccc(O)c(O)c5)cc4)oc3c2)C(O)C(O)C1O (stereo partly shown) [Compound 2] | 4.82 | – | – |
| CC1OC(Oc2cc(O)c3c(=O)c(OC4OC(C)C(O)C(O)C4O[C@@H]4OC(CO)[C@@H](O)[C@H](O)C4O)c(-c4ccc(O)c(OC(=O)/C=C/c5ccc(O)c(O)c5)c4)oc3c2)C(O)C(O)C1O (stereo partly shown) [Compound 3] | 5.85 | strong activity for differentiation induction to small fat cells | – |

More lines, main results first:

| pIC50 [1] | Structure (SMILES) | activity for differentiation induction to small fat cells (adipose) [2] | lipid peroxidation-inhibiting activity (in words) [1] |
| --- | --- | --- | --- |
| 5.96 | O=C(/C=C/c1ccc(O)c(O)c1)Oc1cc(-c2oc3cc(O)cc(O)c3c(=O)c2O[C@@H]2OC(CO)[C@@H](O)[C@H](O)C2O[C@@H]2OC(CO)[C@@H](O)[C@H](O)C2O)ccc1O (stereo partly shown) [Compound 4] | strong activity for differentiation induction to small fat cells | – |
| 5.82 | CC1OC(Oc2c(-c3ccc(O)c(OC(=O)/C=C/c4ccc(O)c(O)c4)c3)oc3cc(O[C@@H]4OC(CO)[C@@H](O)[C@H](O)C4O)cc(O)c3c2=O)C(O[C@@H]2OC(CO)[C@@H](O)[C@H](O)C2O)C(O)C1O (stereo partly shown) [Compound 5] | – | – |
| 5.82 | O=C(/C=C/c1ccc(O)c(O)c1)Oc1cc(-c2oc3cc(O[C@@H]4OC(C(=O)O)[C@@H](O)C(O)C4O)cc(O)c3c(=O)c2O[C@@H]2OC(CO)[C@@H](O)C(O)C2O[C@@H]2OC(CO)[C@@H](O)C(O)C2O)ccc1O (stereo partly shown) [Compound 20] | strong activity for differentiation induction to small fat cells | possess peroxidation-inhibiting activity |
| 4.64 | O=C(/C=C/c1ccc(O)c(O)c1)Oc1ccc(-c2oc3cc(O[C@@H]4OC(C(=O)O)[C@@H](O)C(O)C4O)cc(O)c3c(=O)c2O[C@@H]2OC(CO)[C@@H](O)C(O)C2O[C@@H]2OC(CO)[C@@H](O)C(O)C2O)cc1 (stereo partly shown) [Compound 21] | strong activity for differentiation induction to small fat cells | possess peroxidation-inhibiting activity |
